Reference: ChEMBL document CHEMBL1201862, “PubChem BioAssay data set” (2004)
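Interpolation was linear, between the two tested concentrations surrounding the appropriate level; five concentrations were tested over 48 hours in 96-well plates. GI50: concentration for 50% inhibition of growth.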 Activity calls are given as the source filed them. No stated cut-off is given here; in the data, active = GI50 up to about 1.1 µM and inactive = higher.

Legend:
Experiment in all cases: inhibition of tumour cell growth, NCI panel, 48 h
MDA-MB-435 = system: MDA-MB-435
PC-3 = system: PC-3
EKVX = system: EKVX
HCT-116 = system: HCT-116
BT-549 = system: BT-549
MDA-MB-231 = system: MDA-MB-231
TK-10 = system: TK-10
UACC-62 = system: UACC-62
KM12 = system: KM12
OVCAR-3 = system: OVCAR-3
NCI-H522 = system: NCI-H522
SF-268 = system: SF-268
SK-MEL-2 = system: SK-MEL-2
IGROV-1 = system: IGROV-1
CAKI-1 = system: CAKI-1
SNB-75 = system: SNB-75
T47D = system: T47D
SK-OV-3 = system: SK-OV-3
HL-60 = system: HL-60

Row | Compound | GI50 (MDA-MB-435) | GI50 (PC-3) | GI50 (EKVX) | GI50 (HCT-116) | GI50 (BT-549) | GI50 (MDA-MB-231) | GI50 (TK-10) | GI50 (UACC-62) | GI50 (KM12) | GI50 (OVCAR-3) | GI50 (NCI-H522) | GI50 (SF-268) | GI50 (SK-MEL-2) | GI50 (IGROV-1) | GI50 (CAKI-1) | GI50 (SNB-75) | GI50 (T47D) | GI50 (SK-OV-3) | GI50 (HL-60)
1 | O=c1[nH]c2c(S)nc(O)nc2n1-c1ccccc1 | > 100 µM (inactive) | > 100 µM (inactive) | > 100 µM (inactive) | > 100 µM (inactive) | > 100 µM (inactive) | > 100 µM (inactive) | > 100 µM (inactive) | > 100 µM (inactive) | > 100 µM (inactive) | > 100 µM (inactive) | > 100 µM (inactive) | > 100 µM (inactive) | > 100 µM (inactive) | > 100 µM (inactive) | > 100 µM (inactive) |  |  |  | 
2 | C#CC(O)/C=C/C(O)CCCC(O)CC#CC(O)C#CC(O)CCCC(O)/C=C/CCCCCC(=O)CCCCCCCCCCCCCC(O)C(O)C#CC(=O)O (stereo not given) | > 50 µM (inactive) | > 50 µM (inactive) | > 50 µM (inactive) | > 50 µM (inactive) |  | 12.1 µM (inactive) | > 50 µM (inactive) | > 50 µM (inactive) | > 50 µM (inactive) |  | 8.89 µM (inactive) | > 50 µM (inactive) | 15 µM (inactive) | 13.7 µM (inactive) | > 50 µM (inactive) | 12.3 µM (inactive) | 10.9 µM (inactive) | > 50 µM (inactive) | 26.8 µM (inactive)
3 | Cn1c(=O)c2c(nc(-n3nc(-c4ccc(Cl)cc4)cc3N)n2C)n(C)c1=O | > 100 µM (inactive) | > 100 µM (inactive) | > 100 µM (inactive) | 19.1 µM (inactive) | 44.5 µM (inactive) | > 100 µM (inactive) | > 100 µM (inactive) | 65.6 µM (inactive) | > 100 µM (inactive) | > 100 µM (inactive) |  | 9.91 µM (inactive) | > 100 µM (inactive) | > 100 µM (inactive) | > 100 µM (inactive) |  |  | 18.1 µM (inactive) | > 100 µM (inactive)
4 | CCNC1(c2cccc(C)c2)OC(C)(C)c2cccc3cccc1c23 (stereo not given) | 16.9 µM (inactive) |  | 18.8 µM (inactive) | 27 µM (inactive) | 18.9 µM (inactive) |  | 17.3 µM (inactive) | 15.6 µM (inactive) | 21.9 µM (inactive) | 17.3 µM (inactive) | 15.1 µM (inactive) | 16 µM (inactive) | 15.7 µM (inactive) | 17.8 µM (inactive) | 19.8 µM (inactive) | 15 µM (inactive) | 26.9 µM (inactive) | 17.7 µM (inactive) | 0.646 µM (active)
5 | C(=N/Nc1ccc(-c2nc3ccccc3[nH]2)cc1)/c1c(-c2ccccc2)[nH]c2ccccc12 | 0.0471 µM (active) | 0.311 µM (active) | 3.16 µM (inactive) | 0.424 µM (active) |  | 0.475 µM (active) | 0.766 µM (active) |  | 0.4 µM (active) | 0.219 µM (active) | 0.34 µM (active) | 0.647 µM (active) | 0.199 µM (active) | 0.728 µM (active) | 0.53 µM (active) | 0.703 µM (active) | 28.8 µM (inactive) | 0.32 µM (active) | 0.211 µM (active)
6 | CN(Cc1cc(Cl)c(Cl)cc1NC(=O)CN)[C@H]1CCCC[C@@H]1N1CCCC1 | 15.6 µM (inactive) | 50.7 µM (inactive) | 34.9 µM (inactive) | 20.8 µM (inactive) |  | 38.5 µM (inactive) | 28.1 µM (inactive) | 17.1 µM (inactive) | 44.4 µM (inactive) | 74 µM (inactive) | 18.4 µM (inactive) | 68.2 µM (inactive) | 16.2 µM (inactive) | 66.2 µM (inactive) | 92.7 µM (inactive) | > 100 µM (inactive) | 38.6 µM (inactive) | > 100 µM (inactive) | 40.4 µM (inactive)
7 | COC(C/C(=C/CO[Si](C(C)C)(C(C)C)C(C)C)C(=O)N(COCC[Si](C)(C)C)c1ccccc1I)OC | 5.53 µM (inactive) | 28.4 µM (inactive) |  | 13.2 µM (inactive) |  | > 100 µM (inactive) | 63.1 µM (inactive) | 15.6 µM (inactive) | 31.8 µM (inactive) | 17.8 µM (inactive) |  |  | 14.9 µM (inactive) | 0.0247 µM (active) | > 100 µM (inactive) | > 100 µM (inactive) | 32.6 µM (inactive) | > 100 µM (inactive) | 
8 | COc1cc2c(cc1OCCCOc1cc(-c3ccc(F)cc3)nc(C)n1)N=C[C@@H]1CCCN1C2=O | 15.2 µM (inactive) |  | 18.9 µM (inactive) | 16.9 µM (inactive) |  | 13.8 µM (inactive) | 18.1 µM (inactive) | 14.5 µM (inactive) | 19.3 µM (inactive) | 15.2 µM (inactive) | 14.6 µM (inactive) | 17.2 µM (inactive) | 17.2 µM (inactive) | 19.2 µM (inactive) | 17.5 µM (inactive) | 19.1 µM (inactive) | 25.8 µM (inactive) | 25.6 µM (inactive) | 24.9 µM (inactive)
9 | CCOC(=O)Nc1[nH]cc(-c2ccccc2)c1C#N | > 100 µM (inactive) | > 100 µM (inactive) | > 100 µM (inactive) | > 100 µM (inactive) |  | > 100 µM (inactive) | > 100 µM (inactive) | > 100 µM (inactive) | > 100 µM (inactive) | > 100 µM (inactive) | > 100 µM (inactive) | > 100 µM (inactive) | > 100 µM (inactive) | > 100 µM (inactive) |  | > 100 µM (inactive) |  | > 100 µM (inactive) | > 100 µM (inactive)
10 | CC(=O)OC1OC(c2ccoc2)C[C@@]12C1CCC3O[C@]3(C)[C@]1(C)[C@H](OC(C)=O)[C@H](OC(C)=O)[C@H]2C (stereo not given in full) |  | > 37.5 µM (inactive) | > 37.5 µM (inactive) | > 37.5 µM (inactive) | > 37.5 µM (inactive) | > 37.5 µM (inactive) | > 37.5 µM (inactive) | > 37.5 µM (inactive) | > 37.5 µM (inactive) | > 37.5 µM (inactive) |  |  | > 37.5 µM (inactive) | > 37.5 µM (inactive) | > 37.5 µM (inactive) |  |  | > 37.5 µM (inactive) | 6.62 µM (inactive)
11 | N#CCCC1(CCC#N)CCCCCCCCC(CCC#N)(CCC#N)C(=O)C1=O | > 100 µM (inactive) | > 100 µM (inactive) | > 100 µM (inactive) | > 100 µM (inactive) |  |  | > 100 µM (inactive) | > 100 µM (inactive) | > 100 µM (inactive) | > 100 µM (inactive) | 5.81 µM (inactive) | > 100 µM (inactive) | > 100 µM (inactive) |  | > 100 µM (inactive) | 63.8 µM (inactive) | 36.6 µM (inactive) | > 100 µM (inactive) | > 100 µM (inactive)
12 | c1ccc2/c3[nH]/c(c2c1)=N\c1ccc(cc1)-c1nc2cc(ccc2o1)/N=c1/[nH]/c(c2ccccc12)=N/c1ccc2nc(oc2c1)-c1ccc(cc1)\N=3 | 42.4 µM (inactive) | > 100 µM (inactive) | > 100 µM (inactive) | > 100 µM (inactive) | > 100 µM (inactive) |  |  | 95.3 µM (inactive) | 81.1 µM (inactive) |  | > 100 µM (inactive) | > 100 µM (inactive) |  | > 100 µM (inactive) | > 100 µM (inactive) |  |  |  | > 100 µM (inactive)
13 | O=[N+]([O-])/C(Cl)=C(/C(Cl)=C(Cl)Cl)N1CCCCC1 | 8.81 µM (inactive) | 18.8 µM (inactive) | 20.3 µM (inactive) | 6.18 µM (inactive) |  | 24 µM (inactive) | 21.4 µM (inactive) | 4.21 µM (inactive) | 14.5 µM (inactive) | 10.8 µM (inactive) | 6.44 µM (inactive) | 11.9 µM (inactive) | 25.2 µM (inactive) | 10.6 µM (inactive) | 11.8 µM (inactive) | 18.8 µM (inactive) | 11.8 µM (inactive) | 28.5 µM (inactive) | 2.64 µM (inactive)
14 | C#CCn1c(=O)c2cccnc2n(CC#C)c1=O |  |  |  | > 100 µM (inactive) |  |  | > 100 µM (inactive) |  | > 100 µM (inactive) |  | > 100 µM (inactive) | > 100 µM (inactive) | > 100 µM (inactive) |  | > 100 µM (inactive) | > 100 µM (inactive) |  | > 100 µM (inactive) | > 100 µM (inactive)
15 | O=Cc1c[nH]c2c(=O)[nH]cnc12 |  |  | > 100 µM (inactive) | > 100 µM (inactive) |  |  | > 100 µM (inactive) | > 100 µM (inactive) | > 100 µM (inactive) | > 100 µM (inactive) | > 100 µM (inactive) | > 100 µM (inactive) | > 100 µM (inactive) | > 100 µM (inactive) | > 100 µM (inactive) | > 100 µM (inactive) |  | > 100 µM (inactive) | > 100 µM (inactive)
16 | Cn1c(=O)n2n(c1=O)C(S(=O)(=O)c1ccccc1)C2 (stereo not given) | > 100 µM (inactive) | > 100 µM (inactive) | > 100 µM (inactive) | > 100 µM (inactive) | > 100 µM (inactive) | > 100 µM (inactive) | > 100 µM (inactive) | > 100 µM (inactive) | > 100 µM (inactive) | > 100 µM (inactive) | > 100 µM (inactive) | > 100 µM (inactive) | > 100 µM (inactive) | > 100 µM (inactive) | > 100 µM (inactive) | > 100 µM (inactive) |  | > 100 µM (inactive) | 
17 | N#CC(c1cc2c(cc1Br)OCO2)N1CCOCC1 (stereo not given) | 4.05 µM (inactive) | 15.3 µM (inactive) | 44.3 µM (inactive) | 6.5 µM (inactive) |  | 43.7 µM (inactive) | 90.8 µM (inactive) | 21.1 µM (inactive) | 67.6 µM (inactive) | 30.1 µM (inactive) | > 100 µM (inactive) | 73.8 µM (inactive) |  | 58.1 µM (inactive) | > 100 µM (inactive) | 30.1 µM (inactive) | > 100 µM (inactive) | 73.3 µM (inactive) | 3.33 µM (inactive)
